Results on one compound are retold here after paper PMC11562704, “Volatiles extracted from Melaleuca Rugulosa (Link) Craven leaves: comparative profiling, bioactivity screening, and metabolomic analysis” (BMC Complementary Medicine and Therapies, 2024).

≈ marks a conversion by molar mass, not a printed value.

The experiment has as its target T1, Type 1 collagenase enzyme.
T1 construct: gene colG; native collagenase preparation isolated from the bacterium; type 1 is normally a mixture of ColG and ColH
In words: FALGPA hydrolysis, ninhydrin absorbance at […] nm. In kind it is biochemical, Hathewaya histolytica. The settings on record: FALGPA substrate; 50 mM tricine pH 7.4; 37 °C; 20 min preincubation.

As for `O=C(O)CN(CCN(CC(=O)O)CC(=O)O)CC(=O)O` [EDTA], the “IC50 ± SD (inhibition percentage (IP) ± SD) / Anti-collagenase” value was 315.12 ± 2.21 µg/mL (≈ 1080 µM).
